# Tests used:
# Format in all cases: cell-based
# rat P2X7 = rat P2X7 (Rattus norvegicus (Rat), UniProt Q64663); test: Ca2+ flux (FLIPR) in 1321N1 cells expressing recombinant rat P2X7;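 note: Calcium-4 dye fluorescence change read 180 s after agonist addition, with cells preincubated 30 min with compound and dye in 96-well plates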
# human P2X7 [1] = target: T1, human P2X7 (Homo sapiens (Human), UniProt Q99572); test: Ca2+ flux (FLIPR) in 1321N1 cells expressing recombinant human P2X7;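 note: cells loaded with Calcium-4 dye, preincubated with test compound for 30 min, fluorescence change read 180 s after agonist addition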
# human P2X7 [2] = target: T1, human P2X7; test: P2X7 antagonism in human PBMCs (IL-1β release after LPS + Bz-ATP, ELISA); details: human PBMCs
# [3] = 1321N1 cells, recombinant rat P2X7, 250 μM BzATP
# [4] = 1321N1 cells, recombinant human P2X7, 250 μM BzATP
# [5] = Ca2+ flux, 250 μM BzATP, rat P2X7 1321N1 cells
# [6] = Ca2+ flux, 250 μM BzATP, human P2X7 1321N1 cells
# [7] = 10 μM test compound, LPS + Bz-ATP
# Sequence of rat P2X7 (Q64663 whole entry): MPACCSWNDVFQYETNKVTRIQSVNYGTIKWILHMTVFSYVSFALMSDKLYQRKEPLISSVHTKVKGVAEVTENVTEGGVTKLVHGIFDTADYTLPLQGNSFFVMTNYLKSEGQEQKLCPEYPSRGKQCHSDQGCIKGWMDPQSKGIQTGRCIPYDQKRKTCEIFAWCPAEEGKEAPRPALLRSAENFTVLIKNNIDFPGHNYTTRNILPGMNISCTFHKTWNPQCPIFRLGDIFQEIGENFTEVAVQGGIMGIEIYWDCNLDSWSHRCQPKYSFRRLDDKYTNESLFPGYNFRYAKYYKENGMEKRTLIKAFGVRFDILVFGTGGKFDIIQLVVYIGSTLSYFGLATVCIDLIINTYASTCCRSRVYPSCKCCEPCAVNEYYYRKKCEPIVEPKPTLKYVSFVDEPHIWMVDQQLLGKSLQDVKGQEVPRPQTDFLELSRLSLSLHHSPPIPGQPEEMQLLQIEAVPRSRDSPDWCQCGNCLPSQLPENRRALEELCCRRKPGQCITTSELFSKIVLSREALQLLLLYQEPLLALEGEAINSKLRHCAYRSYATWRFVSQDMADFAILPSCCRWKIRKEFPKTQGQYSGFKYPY
# T1 sequence (Q99572 whole entry): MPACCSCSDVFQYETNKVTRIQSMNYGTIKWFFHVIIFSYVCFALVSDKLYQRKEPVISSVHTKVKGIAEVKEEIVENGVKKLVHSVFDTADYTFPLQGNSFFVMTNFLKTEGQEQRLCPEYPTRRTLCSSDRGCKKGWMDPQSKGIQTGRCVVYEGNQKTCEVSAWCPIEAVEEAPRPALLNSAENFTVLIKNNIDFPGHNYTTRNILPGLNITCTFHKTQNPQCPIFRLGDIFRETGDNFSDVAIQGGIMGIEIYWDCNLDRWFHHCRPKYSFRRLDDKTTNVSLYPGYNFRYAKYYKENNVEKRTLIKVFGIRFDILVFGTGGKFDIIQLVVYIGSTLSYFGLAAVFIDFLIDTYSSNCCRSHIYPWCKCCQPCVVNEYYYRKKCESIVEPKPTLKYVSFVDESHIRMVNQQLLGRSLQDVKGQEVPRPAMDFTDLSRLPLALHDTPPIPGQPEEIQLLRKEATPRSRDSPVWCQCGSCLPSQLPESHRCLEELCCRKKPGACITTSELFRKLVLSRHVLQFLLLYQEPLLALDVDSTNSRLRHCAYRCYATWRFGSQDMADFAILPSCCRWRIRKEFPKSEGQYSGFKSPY
SMILES,IC50 (rat P2X7; [3]) [µM],IC50 (human P2X7 [1]; [4]) [µM],PBMC 10 μM (% control) (human P2X7 [2]; test compound 10 μM),IC50 (rat P2X7; [5]) [µM],IC50 (human P2X7 [1]; [6]) [µM],PBMC 10 μM (% control) (human P2X7 [2]; [7])
"O=C(c1cccc(C(F)(F)F)c1Cl)N1CCc2c(nnn2-c2cc(F)ccn2)C1 [Example 131, (2-Chloro-3-(trifluoromethyl)phenyl)(1-(4-fluoropyridin-2-yl)-6,7-dihydro-1H-[1,2,3]triazolo[4,5-c]pyridin-5(4H)-yl)methanone]",0.0304,0.0021,8.3,,,
"O=C(c1ccc(Cl)cc1F)N1CCc2c(nnn2-c2ncccn2)C1 [Example 280, (4-chloro-2-fluorophenyl)(1-(pyrimidin-2-yl)-6,7-dihydro-1H-[1,2,3]triazolo[4,5-c]pyridin-5(4H)-yl)methanone]",1.35,0.255,3.4,,,
"Cc1c(C(=O)N2CCc3c(nnn3-c3ncccn3)C2)cccc1C(F)(F)F [Example 281, (2-methyl-3-(trifluoromethyl)phenyl)(1-(pyrimidin-2-yl)-6,7-dihydro-1H-[1,2,3]triazolo[4,5-c]pyridin-5(4H)-yl)methanone]",0.349,0.0022,−1.9,,,
"Cc1cc(-n2nnc3c2CCN(C(=O)c2cc(C(F)(F)F)ccc2Cl)C3C)ncc1F (stereo not drawn) [Example 352, (2-chloro-5-(trifluoromethyl)phenyl)(1-(5-fluoro-4-methylpyridin-2-yl)-4-methyl-6,7-dihydro-1H-[1,2,3]triazolo[4,5-c]pyridin-5(4H)-yl)methanone]",> 10,> 10,98.2,,,
"Cc1cc(-n2nnc3c2CCN(C(=O)c2cc(Cl)cc(C(F)(F)F)c2)C3C)ncc1F (stereo not drawn) [Example 361, (3-chloro-5-(trifluoromethyl)phenyl)(1-(5-fluoro-4-methylpyridin-2-yl)-4-methyl-6,7-dihydro-1H-[1,2,3]triazolo[4,5-c]pyridin-5(4H)-yl)methanone]",> 10,> 10,75.3,,,
"Cc1ccnc(-n2nnc3c2CCN(C(=O)c2cccc(OC(F)(F)F)c2F)C3C)c1 (stereo not drawn) [Example 373, (2-fluoro-3-(trifluoromethoxy)phenyl)(4-methyl-1-(4-methylpyridin-2-yl)-6,7-dihydro-1H-[1,2,3]triazolo[4,5-c]pyridin-5(4H)-yl)methanone]",10.1,1.66,17.2,,,
"Cc1cc(-n2nnc3c2CCN(C(=O)c2cccc(OC(F)(F)F)c2F)C3C)ncc1F (stereo not drawn) [Example 374, (2-fluoro-3-(trifluoromethoxy)phenyl)(1-(5-fluoro-4-methylpyridin-2-yl)-4-methyl-6,7-dihydro-1H-[1,2,3]triazolo[4,5-c]pyridin-5(4H)-yl)methanone]",> 10,> 10,104.3,,,
"CC1c2nnn(-c3ncc[nH]3)c2CCN1C(=O)c1cccc(Cl)c1Cl (stereo not drawn) [Example 384, (1-(1H-imidazol-2-yl)-4-methyl-6,7-dihydro-1H-[1,2,3]triazolo[4,5-c]pyridin-5(4H)-yl)(2,3-dichlorophenyl)methanone]",> 10,1.38,−6.3,,,
"Cc1cc(-n2nnc3c2CCN(C(=O)c2cccc(C(F)(F)F)c2F)C3C)ncn1 (stereo not drawn) [Example 396, (2-fluoro-3-(trifluoromethyl)phenyl)(4-methyl-1-(6-methylpyrimidin-4-yl)-6,7-dihydro-1H-[1,2,3]triazolo[4,5-c]pyridin-5(4H)-yl)methanone]",> 10,9.77,23.0,,,
"Cc1nccc(-n2nnc3c2CCN(C(=O)c2cccc(C(F)(F)F)c2Cl)C3C)n1 (stereo not drawn) [Example 398, (2-chloro-3-(trifluoromethyl)phenyl)(4-methyl-1-(2-methylpyrimidin-4-yl)-6,7-dihydro-1H-[1,2,3]triazolo[4,5-c]pyridin-5(4H)-yl)methanone]",> 10,0.538,0.2,,,
"Cc1nccc(-n2nnc3c2CCN(C(=O)c2ccnc(C(F)(F)F)c2Cl)C3C)n1 (stereo not drawn) [Example 399, (3-chloro-2-(trifluoromethyl)pyridin-4-yl)(4-methyl-1-(2-methylpyrimidin-4-yl)-6,7-dihydro-1H-[1,2,3]triazolo[4,5-c]pyridin-5(4H)-yl)methanone]",> 10,1.72,1.1,,,
"Cc1nccc(-n2nnc3c2CCN(C(=O)c2cccc(C(F)(F)F)c2F)C3C)n1 (stereo not drawn) [Example 400, (2-fluoro-3-(trifluoromethyl)phenyl)(4-methyl-1-(2-methylpyrimidin-4-yl)-6,7-dihydro-1H-[1,2,3]triazolo[4,5-c]pyridin-5(4H)-yl)methanone]",> 10,16.9,32.0,,,
"Cc1cc(-n2nnc3c2CCN(C(=O)c2ccnc(C(F)(F)F)c2Cl)C3C)ncn1 (stereo not drawn) [Example 403, (3-chloro-2-(trifluoromethyl)pyridin-4-yl)(4-methyl-1-(6-methylpyrimidin-4-yl)-6,7-dihydro-1H-[1,2,3]triazolo[4,5-c]pyridin-5(4H)-yl)methanone]",12.5,0.435,−0.2,,,
"CCn1ccc(-n2nnc3c2CCN(C(=O)c2cccc(C(F)(F)F)c2Cl)[C@H]3C)n1 [Example 405, (S)-(2-chloro-3-(trifluoromethyl)phenyl)(1-(1-ethyl-1H-pyrazol-3-yl)-4-methyl-6,7-dihydro-1H-[1,2,3]triazolo[4,5-c]pyridin-5(4H)-yl)methanone]",,,,2.3,1.6,−0.4
"CCn1ccc(-n2nnc3c2CCN(C(=O)c2ccnc(C(F)(F)F)c2F)[C@H]3C)n1 [Example 409, (S)-(1-(1-ethyl-1H-pyrazol-3-yl)-4-methyl-6,7-dihydro-1H-[1,2,3]triazolo[4,5-c]pyridin-5(4H)-yl)(3-fluoro-2-(trifluoromethyl)pyridin-4-yl)methanone]",,,,0.0184,0.0289,0.5
"CC(C)n1ccc(-n2nnc3c2C[C@H](C)N(C(=O)c2cccc(C(F)(F)F)c2Cl)C3)n1 [Example 412, (S)-(2-chloro-3-(trifluoromethyl)phenyl)(1-(1-isopropyl-1H-pyrazol-3-yl)-6-methyl-6,7-dihydro-1H-[1,2,3]triazolo[4,5-c]pyridin-5(4H)-yl)methanone]",,,,0.0041,0.0283,−12.6
"CC(C)n1ccc(-n2nnc3c2C[C@H](C)N(C(=O)c2cccc(C(F)(F)F)c2F)C3)n1 [Example 414, (S)-(2-fluoro-3-(trifluoromethyl)phenyl)(1-(1-isopropyl-1H-pyrazol-3-yl)-6-methyl-6,7-dihydro-1H-[1,2,3]triazolo[4,5-c]pyridin-5(4H)-yl)methanone]",,,,36.6,> 10,22.4
"CC(C)n1ccc(-n2nnc3c2CCN(C(=O)c2cccc(C(F)(F)F)c2F)[C@H]3C)n1 [Example 415, (S)-(2-fluoro-3-(trifluoromethyl)phenyl)(1-(1-isopropyl-1H-pyrazol-3-yl)-4-methyl-6,7-dihydro-1H-[1,2,3]triazolo[4,5-c]pyridin-5(4H)-yl)methanone]",,,,0.0129,0.146,1.5
"CC(C)n1ccc(-n2nnc3c2C[C@H](C)N(C(=O)c2ccnc(C(F)(F)F)c2Cl)C3)n1 [Example 416, (S)-(3-chloro-2-(trifluoromethyl)pyridin-4-yl)(1-(1-isopropyl-1H-pyrazol-3-yl)-6-methyl-6,7-dihydro-1H-[1,2,3]triazolo[4,5-c]pyridin-5(4H)-yl)methanone]",,,,0.0081,0.0473,1.9
"CC(C)n1ccc(-n2nnc3c2CCN(C(=O)c2ccnc(C(F)(F)F)c2F)[C@H]3C)n1 [Example 419, (S)-(3-fluoro-2-(trifluoromethyl)pyridin-4-yl)(1-(1-isopropyl-1H-pyrazol-3-yl)-4-methyl-6,7-dihydro-1H-[1,2,3]triazolo[4,5-c]pyridin-5(4H)-yl)methanone]",,,,0.0157,0.092,−0.4
"C[C@H]1c2nnn(-c3ccsc3)c2CCN1C(=O)c1cccc(C(F)(F)F)c1Cl [Example 421, (S)-(2-chloro-3-(trifluoromethyl)phenyl)(4-methyl-1-(thiophen-3-yl)-6,7-dihydro-1H-[1,2,3]triazolo[4,5-c]pyridin-5(4H)-yl)methanone]",,,,> 10,1.03,−1.4
"C[C@H]1Cc2c(nnn2-c2ncc(F)cn2)CN1C(=O)c1cccc(C(F)(F)F)c1O [Example 426, (S)-(1-(5-fluoropyrimidin-2-yl)-6-methyl-6,7-dihydro-1H-[1,2,3]triazolo[4,5-c]pyridin-5(4H)-yl)(2-hydroxy-3-(trifluoromethyl)phenyl)methanone]",,,,> 10,> 10,113.2
"C[C@H]1Cc2c(nnn2-c2ncc(F)cn2)CN1C(=O)c1cccc(OC(F)(F)F)c1F [Example 427, (S)-(2-fluoro-3-(trifluoromethoxy)phenyl)(1-(5-fluoropyrimidin-2-yl)-6-methyl-6,7-dihydro-1H-[1,2,3]triazolo[4,5-c]pyridin-5(4H)-yl)methanone]",,,,8.28,0.262,−0.8
"C[C@H]1Cc2c(nnn2-c2ncc(O)cn2)CN1C(=O)c1cccc(C(F)(F)F)c1F [Example 428, (S)-(2-fluoro-3-(trifluoromethyl)phenyl)(1-(5-hydroxypyrimidin-2-yl)-6-methyl-6,7-dihydro-1H-[1,2,3]triazolo[4,5-c]pyridin-5(4H)-yl)methanone]",,,,0.0212,0.0166,1.4

# Reference: patent US10112937B2, “P2X7 modulators and methods of use” (Janssen Pharmaceutica NV, priority 2013, dated 2018)
